Experimental findings from US9605026B2, “Hydrogen-bond surrogate peptides and peptidomimetics for p53 reactivation” (New York University, priority 2013, dated 2017) are described below.

Test [1] has as its target T1, HPV16 E6-p300 association (Homo sapiens, UniProt Q09472).
T1 construct: UMSCC47 cells were treated with control (vehicle), CH1iA (10 μM), or CH1iB (10 μM) for 24 hours; endogenous in cells; host or cells: UMSCC47 (HPV16-positive HNSCC cells)
Briefly: Immunoprecipitation of HPV16 E6-p300 association in UMSCC47 cells. It counts as cell-based. Conditions: UMSCC47, 10 μM, 24 hours.
Protocol: FIG. 5C is a graph of p53 activity. UMSCC47 (left) and UMSCC74A (right) cells were co-transfected with a p53 Firefly luciferase reporter plasmid and a control Renilla luciferase plasmid. After 24 hours, cells were treated with control (vehicle), CH1iA (10 μM), or CH1iB (10 μM) for 24 hours. Firefly luciferase activity was normalized to Renilla luciferase activity to control for transfection efficiency. Data is normalized to control and presented as mean±SEM. *P<0.05, n=3. FIG. 5D is a western blot showing total and acetylated p53 levels. UMSCC47 (left) and UMSCC74A (right) cells were treated with control (vehicle), CH1iA (10 μM), or CH1iB (10 μM) for 24 hours. Cell lysates were immunoblotted with anti-p53 or anti-acetylated[K382]-p53 antibody. FIG. 5E is a pair of graphs of p300, p53, p21, miR-34a, and miR-200c expression. UMSCC47 (top panel) and UMSCC74A (bottom panel) cells were treated with control (vehicle), CH1iA (10 μM), or CH1iB (10 μM) for 24 hours. mRNA expression was determined using qPCR with validated TaqMan assays. Data is normalized to control cells and presented as mean±SEM. *P<0.01, control vs. CH1iB, n=3. […] UMSCC47 cells were treated with control (vehicle), CH1iA (10 μM), or CH1iB (10 μM) for 24 hours. Cell lysates were extracted, immunoprecipitated with anti-p300 antibody, and immunoblotted with anti-E6 antibody. […]

Test [2] relates to human normal IMR90 fibroblasts. Briefly: Cell proliferation (MTT) in IMR90 fibroblasts. Format: cell-based. Conditions: for effect on efficacy of cis-platinum on proliferation: IMR90, 10 μM with cis-platinum 10 μM; for cell proliferation, single-agent: IMR90 human normal fibroblasts, 10 μM. The source says: FIG. 5A is an schematic illustration showing that CH1 has two distinct target sites. HIF1-α/p300 structures were used as guides to design helix mimetics that target site A and site B on the CH1 domain of p300. […] CH1iA (SEQ ID NO: 7) and CH1iB (SEQ ID NO: 8) were designed to mimic two helices from the C-terminal domain of HIF-1α. The peptides were locked into the helical conformation by the hydrogen bond surrogate method. FIG. 5C is a graph of p53 activity. UMSCC47 (left) and UMSCC74A (right) cells were co-transfected with a p53 Firefly luciferase reporter plasmid and a control Renilla luciferase plasmid. After 24 hours, cells were treated with control (vehicle), CH1iA (10 μM), or CH1iB (10 μM) for 24 hours. Firefly luciferase activity was normalized to Renilla luciferase activity to control for transfection efficiency. Data is normalized to control and presented as mean±SEM. *P<0.05, n=3. FIG. 5D is a western blot showing total and acetylated p53 levels. UMSCC47 (left) and UMSCC74A (right) cells were treated with control (vehicle), CH1iA (10 μM), or CH1iB (10 μM) for 24 hours. Cell lysates were immunoblotted with anti-p53 or anti-acetylated[K382]-p53 antibody. FIG. 5E is a pair of graphs of p300, p53, p21, miR-34a, and miR-200c expression. UMSCC47 (top panel) and UMSCC74A (bottom panel) cells were treated with control (vehicle), CH1iA (10 μM), or CH1iB (10 μM) for 24 hours. mRNA expression was determined using qPCR with validated TaqMan assays. Data is normalized to control cells and presented as mean±SEM. *P<0.01, control vs. CH1iB, n=3. FIG. 5F is a western blot showing HPV16 E6-p300 association. UMSCC47 cells were treated with control (vehicle), CH1iA (10 μM), or CH1iB (10 μM) for 24 hours. Cell lysates were extracted, immunoprecipitated with anti-p300 antibody, and immunoblotted with anti-E6 antibody. Cell lysates were immunoblotted with anti-E6 or anti-p300 antibody for input control. FIG. 5G is a set of graphs of cell proliferation. UMSCC47 (top left panel), UMSCC74A (top right panel), and IMR90 (human normal fibroblasts) (bottom panel) cells were treated with control (vehicle), CH1iA (10 μM), CH1iB (10 μM), cis-platinum (10 μM), CH1iA (10 μM) and cis-platinum (10 μM), or CH1iB (10 μM) and cis-platinum (10 μM) for 24, 48, or 72 hours. […]
Cell proliferation was assessed using the MTT reagent (Roche Molecular Biochemicals, Nutley, N.J.) to detect metabolic active cells. Absorbance was measured at 570 nm in the Spectra Max 190 ELISA reader (Molecular Devices, Sunnyvale, Calif.) after overnight incubation. […] Apoptotic cells were analyzed using BD FACS Calibur (BD Biosciences Corporation, Franklin Lakes, N.J.) at The Ohio State University Comprehensive Cancer Center Analytical Cytometry Core.

T1 sequence (Q09472 whole entry): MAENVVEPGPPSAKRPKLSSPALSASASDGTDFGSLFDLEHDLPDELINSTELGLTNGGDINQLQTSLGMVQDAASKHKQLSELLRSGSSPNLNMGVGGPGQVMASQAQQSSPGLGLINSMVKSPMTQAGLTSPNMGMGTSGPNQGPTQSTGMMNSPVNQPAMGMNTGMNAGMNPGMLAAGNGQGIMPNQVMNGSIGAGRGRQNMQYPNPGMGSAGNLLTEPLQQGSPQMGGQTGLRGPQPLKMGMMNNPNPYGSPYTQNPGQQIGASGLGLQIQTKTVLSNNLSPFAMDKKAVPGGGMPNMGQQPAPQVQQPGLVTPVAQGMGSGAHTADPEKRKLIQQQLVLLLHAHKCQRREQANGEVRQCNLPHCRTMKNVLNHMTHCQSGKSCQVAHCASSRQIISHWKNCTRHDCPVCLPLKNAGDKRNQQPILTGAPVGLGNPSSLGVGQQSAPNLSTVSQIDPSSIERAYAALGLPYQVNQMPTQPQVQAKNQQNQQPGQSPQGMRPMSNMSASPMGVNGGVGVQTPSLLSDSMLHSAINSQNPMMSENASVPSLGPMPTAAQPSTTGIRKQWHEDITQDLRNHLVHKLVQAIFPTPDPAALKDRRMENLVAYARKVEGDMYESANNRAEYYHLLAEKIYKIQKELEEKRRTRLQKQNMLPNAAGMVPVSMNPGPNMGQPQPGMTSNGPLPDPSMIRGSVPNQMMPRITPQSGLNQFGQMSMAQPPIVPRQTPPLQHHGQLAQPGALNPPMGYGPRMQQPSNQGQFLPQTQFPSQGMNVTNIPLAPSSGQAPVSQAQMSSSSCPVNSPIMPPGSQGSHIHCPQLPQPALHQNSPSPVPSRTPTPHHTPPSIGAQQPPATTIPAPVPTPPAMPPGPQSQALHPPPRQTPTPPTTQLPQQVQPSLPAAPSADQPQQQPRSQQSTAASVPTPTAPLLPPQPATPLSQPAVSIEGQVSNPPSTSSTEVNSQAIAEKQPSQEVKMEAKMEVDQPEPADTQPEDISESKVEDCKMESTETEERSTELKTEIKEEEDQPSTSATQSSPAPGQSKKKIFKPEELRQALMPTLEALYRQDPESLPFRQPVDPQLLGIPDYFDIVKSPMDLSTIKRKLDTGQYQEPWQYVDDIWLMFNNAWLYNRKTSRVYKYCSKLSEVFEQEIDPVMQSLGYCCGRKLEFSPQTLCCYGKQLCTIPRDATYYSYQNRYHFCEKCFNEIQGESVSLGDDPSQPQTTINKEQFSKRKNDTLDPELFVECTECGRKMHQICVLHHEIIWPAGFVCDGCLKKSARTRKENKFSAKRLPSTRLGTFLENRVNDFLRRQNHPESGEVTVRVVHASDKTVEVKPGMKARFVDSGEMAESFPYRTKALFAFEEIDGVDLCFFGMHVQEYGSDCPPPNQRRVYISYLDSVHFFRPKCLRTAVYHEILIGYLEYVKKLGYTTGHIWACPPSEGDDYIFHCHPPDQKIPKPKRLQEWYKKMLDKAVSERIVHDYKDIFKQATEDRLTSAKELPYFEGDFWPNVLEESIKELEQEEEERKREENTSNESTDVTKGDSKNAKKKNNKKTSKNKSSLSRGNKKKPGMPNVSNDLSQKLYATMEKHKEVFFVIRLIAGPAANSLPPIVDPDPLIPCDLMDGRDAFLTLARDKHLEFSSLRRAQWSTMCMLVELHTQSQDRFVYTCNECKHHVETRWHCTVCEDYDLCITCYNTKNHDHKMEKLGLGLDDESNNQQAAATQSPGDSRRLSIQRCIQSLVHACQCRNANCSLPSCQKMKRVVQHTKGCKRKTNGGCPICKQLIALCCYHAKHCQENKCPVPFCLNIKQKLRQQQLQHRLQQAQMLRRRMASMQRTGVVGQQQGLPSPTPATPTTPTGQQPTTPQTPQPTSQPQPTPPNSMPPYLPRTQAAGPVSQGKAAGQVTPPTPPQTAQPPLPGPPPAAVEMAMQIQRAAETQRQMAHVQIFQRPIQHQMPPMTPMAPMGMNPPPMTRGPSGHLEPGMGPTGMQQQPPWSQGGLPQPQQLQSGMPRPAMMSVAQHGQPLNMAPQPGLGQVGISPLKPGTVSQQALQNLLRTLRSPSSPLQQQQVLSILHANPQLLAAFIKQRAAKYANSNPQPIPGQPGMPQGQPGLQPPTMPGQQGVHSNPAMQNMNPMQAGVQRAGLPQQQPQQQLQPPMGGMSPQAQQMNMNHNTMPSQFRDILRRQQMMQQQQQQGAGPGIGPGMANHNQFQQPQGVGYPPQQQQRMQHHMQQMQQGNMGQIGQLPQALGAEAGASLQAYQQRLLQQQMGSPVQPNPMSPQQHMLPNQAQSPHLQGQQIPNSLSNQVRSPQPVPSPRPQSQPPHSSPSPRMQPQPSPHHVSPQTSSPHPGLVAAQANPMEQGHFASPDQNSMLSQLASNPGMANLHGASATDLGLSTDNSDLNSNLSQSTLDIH

With “XELA*RALDQ-NH2 (ELXRALDQ; HBS: 4-pentenoic acid, N-allylalanine; C-terminal amide; CH1iB) [X 4-pentenoic acid, A* N-allylalanine]”, the “association between E6 and p300” value in test [1] is reported as “reduced”. In test [2], the “effect on efficacy of cis-platinum on proliferation” value is reported as “did not augment” and the “cell proliferation, single-agent” value is recorded as “no effect”.

With “XTAA*DCEYNAR (TAXDCEYNAR; HBS: 4-pentenoic acid, N-allylalanine; CH1iA) [X 4-pentenoic acid, A* N-allylalanine, reference compound]”, in test [2], the “effect on efficacy of cis-platinum on proliferation” value is given as “did not augment” and the “cell proliferation, single-agent” value was “no effect”.
